Structures can show the parent of a compound that is named as a salt.

The test addresses T1, human GYS1 (glycogen synthase) (Homo sapiens, UniProt P13807).
T1 construct: made in house; host or cells: HEK293T
T1 sequence (P13807 1-737): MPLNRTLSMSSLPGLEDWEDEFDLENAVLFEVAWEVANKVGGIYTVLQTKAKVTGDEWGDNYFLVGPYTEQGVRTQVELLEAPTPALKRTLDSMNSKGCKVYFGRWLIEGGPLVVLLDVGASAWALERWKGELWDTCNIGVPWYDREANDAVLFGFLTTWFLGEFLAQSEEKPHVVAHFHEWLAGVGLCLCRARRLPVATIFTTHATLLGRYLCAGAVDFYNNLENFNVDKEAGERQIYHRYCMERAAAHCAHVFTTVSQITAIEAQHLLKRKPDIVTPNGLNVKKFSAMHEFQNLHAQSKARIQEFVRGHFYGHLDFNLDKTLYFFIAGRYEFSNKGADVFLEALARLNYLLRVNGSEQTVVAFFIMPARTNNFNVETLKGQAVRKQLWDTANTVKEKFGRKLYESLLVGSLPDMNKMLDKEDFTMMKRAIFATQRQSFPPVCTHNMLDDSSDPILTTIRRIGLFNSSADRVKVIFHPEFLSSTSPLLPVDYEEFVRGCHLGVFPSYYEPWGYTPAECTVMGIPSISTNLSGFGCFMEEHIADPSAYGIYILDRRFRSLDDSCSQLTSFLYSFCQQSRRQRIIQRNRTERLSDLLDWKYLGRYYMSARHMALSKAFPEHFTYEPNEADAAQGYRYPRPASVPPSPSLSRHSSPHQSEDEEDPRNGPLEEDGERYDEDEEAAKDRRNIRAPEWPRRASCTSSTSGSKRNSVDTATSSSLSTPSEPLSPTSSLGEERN
In words: Measurement of glycogen synthase activity. The class given is biochemical. The conditions noted are these: concentration causing 50% increase in relative activity; 100% = compound of Example 1 of WO/2011/058154 at 10 μM; 10 mM Glucose-6-phosphate; 37° C. for 25 minutes (Examples 1 to 61 and 67 to 82) or 20 minutes (Examples 62 to 66); absorbance at 340 nm. The gist of the method: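 Human GYS1 from transfected HEK293T cells (re-dissolved 16000×g pellet) was reacted at 37 °C for 25 or 20 min in glycylglycine pH 7.3 with glucose-6-phosphate, glycogen and UDP-glucose. PK/LDH-coupled NADH read-out at 340 nm; EC50 from activity relative to a reference activator at 10 μM final (100%).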
`CSc1cc(F)c(F)cc1-c1ccc(OCc2cccc(C(=O)N(CCCS(C)(=O)=O)CC(=O)O)c2)cc1` [Example 32, 2-[[3-[[4-(4,5-Difluoro-2-methylsulfanyl-phenyl)phenoxy]methyl]benzoyl]-(3-methylsulfonylpropyl)amino]acetic Acid] registered an EC50 of 0.02 µM.
`CSc1cc(F)c(F)cc1-c1ccc(OCc2cccc(C(=O)N(CCC#N)CC(=O)O)c2)cc1` [Example 7, 2-[2-Cyanoethyl-[3-[[4-(4,5-difluoro-2-methylsulfanyl-phenyl)phenoxy]methyl]benzoyl]amino]acetic Acid] gave an EC50 of 0.011 µM.
Regarding `CS(=O)(=O)CCCN(CC(=O)O)C(=O)c1cccc(COc2ccc(-c3cc(F)c(F)c4ccoc34)cc2)c1` [Example 77, 2-[[3-[[4-(4,5-Difluorobenzofuran-7-yl)phenoxy]methyl]benzoyl]-(3-methylsulfonylpropyl)amino]acetic Acid], the EC50 came out at 0.02 µM.
Take `CSc1cc(F)c(F)cc1-c1ccc(OCc2cccc(C(=O)N(CC(=O)O)Cc3coc(C)n3)c2)cc1` [Example 67, 2-[[3-[[4-(4,5-Difluoro-2-methylsulfanyl-phenyl)phenoxy]methyl]benzoyl]-[(2-methyloxazol-4-yl)methyl]amino]acetic Acid]: the EC50 came to 0.013 µM.
Consider `CSc1cc(F)c(F)cc1-c1ccc(OCc2cccc(C(=O)N(CC(=O)O)Cc3cscn3)c2)cc1` [Example 71, 2-[[3-[[4-(4,5-Difluoro-2-methylsulfanyl-phenyl)phenoxy]methyl]benzoyl]-(thiazol-4-ylmethyl)amino]acetic Acid], for which the EC50 came out at 0.017 µM.
`O=C(O)CN(C(=O)c1cccc(COc2ccc(-c3cc(F)c(F)c4ccoc34)cc2)c1)C1CCNC1=O` (stereo not drawn) [Example 82, 2-[[3-[[4-(4,5-Difluorobenzofuran-7-yl)phenoxy]methyl]benzoyl]-(2-oxopyrrolidin-3-yl)amino]acetic Acid] returned an EC50 of 0.019 µM.
`CSc1cc(F)c(F)cc1-c1ccc(OCc2cccc(C(=O)N(CCN3CCS(=O)(=O)CC3)CC(=O)O)c2)cc1` [Example 41, 2-[[3-[[4-(4,5-Difluoro-2-methylsulfanyl-phenyl)phenoxy]methyl]benzoyl]-[2-(1,1-dioxo-1,4-thiazinan-4-yl)ethyl]amino]acetic Acid Trifluoroacetate] came in with an EC50 of 0.021 µM.
Compound `CSc1cc(F)c(F)cc1-c1ccc(OCc2cccc(C(=O)N(CC(=O)O)CC3CCNCC3)c2)cc1` [Example 35, 2-[[3-[[4-(4,5-Difluoro-2-methylsulfanyl-phenyl)phenoxy]methyl]benzoyl]-(4-piperidylmethyl)amino]acetic Acid Trifluoroacetate] displayed an EC50 of 0.019 µM.
Under `CSc1cc(F)c(F)cc1-c1ccc(OCc2cccc(C(=O)N(CC(=O)O)CC3CCOCC3)c2)cc1` [Example 34, 2-[[3-[[4-(4,5-Difluoro-2-methylsulfanyl-phenyl)phenoxy]methyl]benzoyl]-(tetrahydropyran-4-ylmethyl)amino]acetic Acid] stands 0.024 µM.
For `CS(=O)(=O)CCN(CC(=O)O)C(=O)c1cccc(COc2ccc(-c3cc(F)c(F)c4ccoc34)cc2)c1` [Example 8, 2-[[3-[[4-(4,5-Difluorobenzofuran-7-yl)phenoxy]methyl]benzoyl]-(2-methylsulfonylethyl)amino]acetic Acid] the value was 0.015 µM; for `CSc1cc(F)c(F)cc1-c1ccc(OCc2cccc(C(=O)N(CCCN(C)C)CC(=O)O)c2)cc1` [Example 26, 2-[[3-[[4-(4,5-Difluoro-2-methylsulfanyl-phenyl)phenoxy]methyl]benzoyl]-[3-(dimethylamino)propyl]amino]acetic Acid Trifluoroacetate], 0.014 µM.
For `CSc1cc(F)c(F)cc1-c1ccc(OCc2cccc(C(=O)N(CC(=O)O)Cc3ccncc3)c2)cc1` [Example 19, 2-[[3-[[4-(4,5-Difluoro-2-methylsulfanyl-phenyl)phenoxy]methyl]benzoyl]-(4-pyridylmethyl)amino]acetic Acid Trifluoroacetate] the value was 0.0034 µM.

Source of the values: patent US20160046592A1, “PHARMACEUTICAL COMPOSITION FOR THE TREATMENT OF DIABETES” (Ajinomoto Co., Inc., priority 2013, published 2016).
